Source: patent publication US11242337B2, “Compounds useful for treating gastrointestinal tract disorders” (Ardelyx, Inc., priority 2017, dated 2022)

Experiments:
[1] = system: human duodenum monolayer culture; assay: Sustained inhibition of apical acid secretion in human organoid monolayer cell cultures (duodenum); assay type: cell-based; conditions: Homo sapiens
Method in brief: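 Duodenum organoid cells were plated on Transwells, differentiated with EGF/noggin/A83-01 from day 3, and dosed apically on day 6 with compound at 1 μM final (DMSO vehicle control), in duplicate wells, at 37° C, 5% CO2. Apical media pH was measured by electrode on day 8.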

[2] = target: T1, NHE3 (Homo sapiens, UniProt P48764); assay: Cell-based assay of NHE-3 activity (pre-incubation inhibition), human; conditions: human Preincubation
T1 construct: expressed in transfected cells
T1 sequence (P48764 26-834): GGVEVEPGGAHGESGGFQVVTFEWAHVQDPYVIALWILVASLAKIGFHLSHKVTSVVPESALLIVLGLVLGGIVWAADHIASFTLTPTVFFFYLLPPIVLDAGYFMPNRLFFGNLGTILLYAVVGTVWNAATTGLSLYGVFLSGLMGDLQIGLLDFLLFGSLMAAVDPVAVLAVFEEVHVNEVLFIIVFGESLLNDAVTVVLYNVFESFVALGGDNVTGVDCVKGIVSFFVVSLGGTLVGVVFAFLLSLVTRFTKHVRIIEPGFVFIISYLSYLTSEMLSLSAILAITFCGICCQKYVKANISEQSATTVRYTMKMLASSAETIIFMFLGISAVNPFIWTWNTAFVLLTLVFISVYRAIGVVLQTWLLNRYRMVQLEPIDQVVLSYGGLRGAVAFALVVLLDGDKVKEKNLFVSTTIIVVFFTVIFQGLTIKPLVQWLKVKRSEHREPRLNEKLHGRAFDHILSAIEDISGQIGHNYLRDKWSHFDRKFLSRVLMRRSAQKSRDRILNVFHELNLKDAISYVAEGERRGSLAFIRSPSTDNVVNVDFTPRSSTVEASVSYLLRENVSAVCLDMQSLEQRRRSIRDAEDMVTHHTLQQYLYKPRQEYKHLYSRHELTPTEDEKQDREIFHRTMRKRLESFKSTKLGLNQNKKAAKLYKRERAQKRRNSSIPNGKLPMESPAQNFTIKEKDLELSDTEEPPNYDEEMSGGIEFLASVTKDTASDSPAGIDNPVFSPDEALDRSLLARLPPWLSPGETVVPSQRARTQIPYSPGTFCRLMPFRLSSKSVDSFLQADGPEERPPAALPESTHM
T1 sequence (Q99653 2-195 partner limits assumed): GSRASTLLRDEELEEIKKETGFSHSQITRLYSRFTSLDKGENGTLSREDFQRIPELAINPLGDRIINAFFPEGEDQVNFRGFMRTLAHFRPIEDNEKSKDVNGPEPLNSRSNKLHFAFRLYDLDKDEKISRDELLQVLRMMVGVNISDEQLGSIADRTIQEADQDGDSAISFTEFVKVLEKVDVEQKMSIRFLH
Method in brief: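 Activity read as initial rate of BCECF fluorescence ratio change per minute (ex 439/505, em 538 nm) following NH4Cl prepulse acid loading. Compound (0–30 μM) present during 10 min Na+-free acidification at room temperature; cells were PS120 fibroblasts stably co-expressing human NHE3 and NHERF2.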

| % inhibition [2] | pIC50 ([2]; 0-30 μM test compound) | IC50 ([2]; 0-30 μM test compound) | SMILES | inhibition at 1 µM [1] |
| --- | --- | --- | --- | --- |
| C (>70%) | C (NHE3 pIC50 > 7) |  | N#Cc1cc(Cl)cc2c1C[C@H](N1CCNCC1)[C@H]2Oc1ccc(S(=O)(=O)N[C@@H]2CCN(CCOCCNC(=O)NCCCCNC(=O)NCCOCCN3CC[C@@H](NS(=O)(=O)c4ccc(O[C@H]5c6cc(Cl)cc(C#N)c6C[C@@H]5N5CCNCC5)c(F)c4)C3)C2)cc1F [Example 109, 4-([(1S,2S)-6-Chloro-4-cyano-2-(piperazin-1-yl)-2,3-dihydro-1H-inden-1-yl]oxy)-N—[(R)-1-(20-[(R)-3-[(4-([(1S,2S)-6-chloro-4-cyano-2-(piperazin-1-yl)-2,3-dihydro-1H-inden-1-yl]oxy)-3-fluorophenyl)sulfonamide)pyrrolidin-1-yl]-7,14-dioxo-3,18-dioxa-6,8,13,15-tetraazaicosyl)pyrrolidin-3-yl]-3-fluorobenzenesulfonamide; tetra(trifluoroacetate)] | > 70% |
| C (>70%) | C (NHE3 pIC50 > 7) |  | N#Cc1cc(Cl)cc2c1C[C@H](N1CCNCC1)[C@H]2Oc1ccc(S(=O)(=O)N[C@H]2CCN(CCOCCNC(=O)NCCCCNC(=O)NCCOCCN3CC[C@H](NS(=O)(=O)c4ccc(O[C@H]5c6cc(Cl)cc(C#N)c6C[C@@H]5N5CCNCC5)c(F)c4)C3)C2)cc1F [Example 110, 4-([(1S,2S)-6-Chloro-4-cyano-2-(piperazin-1-yl)-2,3-dihydro-1H-inden-1-yl]oxy)-N—[(S)-1-(20-[(S)-3-[(4-([(1S,2S)-6-chloro-4-cyano-2-(piperazin-1-yl)-2,3-dihydro-1H-inden-1-yl]oxy)-3-fluorophenyl)sulfonamide)pyrrolidin-1-yl]-7,14-dioxo-3,18-dioxa-6,8,13,15-tetraazaicosyl)pyrrolidin-3-yl]-3-fluorobenzenesulfonamide; tetra(trifluoroacetate)] | > 70% |
| C (>70%) | C (NHE3 pIC50 > 7) |  | N#Cc1cc(Cl)cc2c1C[C@H](N1CCNCC1)[C@H]2Oc1ccc(S(=O)(=O)NC2CCN(C(=O)CCCNC(=O)NCCCCNC(=O)NCCCC(=O)N3CCC(NS(=O)(=O)c4ccc(O[C@H]5c6cc(Cl)cc(C#N)c6C[C@@H]5N5CCNCC5)cc4)CC3)CC2)cc1 [Example 115] | > 70% |
| C (>70%) | C (NHE3 pIC50 > 7) |  | CN(C)[C@H]1CCCN([C@H]2Cc3c(C#N)cc(Cl)cc3[C@@H]2Oc2ccc(S(=O)(=O)NCCOCCOCCNC(=O)NCCCCNC(=O)NCCOCCOCCNS(=O)(=O)c3ccc(O[C@H]4c5cc(Cl)cc(C#N)c5C[C@@H]4N4CCC[C@H](N(C)C)C4)cc3)cc2)C1 [Example 122, 4-([(1S,2S)-6-Chloro-4-cyano-2-[(S)-3-(dimethylamino)piperidin-1-yl]-2,3-dihydro-1H-inden-1-yl]oxy)-N-[26-([4-([(1S,2S)-6-chloro-4-cyano-2-[(S)-3-(dimethylamino)piperidin-1-yl]-2,3-dihydro-1H-inden-1-yl]oxy)phenyl]sulfonamido)-10,17-dioxo-3,6,21,24-tetraoxa-9,11,16,18-tetraazahexacosyl]benzenesulfonamide] | > 70% |
| C (>70%) | C (NHE3 pIC50 > 7) |  | N#Cc1cc(Cl)cc2c1C[C@H](N1CCNCC1)[C@H]2Oc1ccc(S(=O)(=O)NC2CCN(CCOCCNC(=O)NCCCCNC(=O)NCCOCCN3CCC(NS(=O)(=O)c4ccc(O[C@H]5c6cc(Cl)cc(C#N)c6C[C@@H]5N5CCNCC5)cc4)CC3)CC2)cc1 [Example 123, 4-([(1S,2S)-6-Chloro-4-cyano-2-(piperazin-1-yl)-2,3-dihydro-1H-inden-1-yl]oxy)-N-[1-(20-[4-([4-([(1S,2S)-6-chloro-4-cyano-2-(piperazin-1-yl)-2,3-dihydro-1H-inden-1-yl]oxy)phenyl]sulfonamide]piperidin-1-yl)-7,14-dioxo-3,18-dioxa-6,8,13,15-tetraazaicosyl]piperidin-4-yl)benzenesulfonamide] | > 70% |
| C (>70%) |  | < 100 nM | N#Cc1cc(Cl)cc2c1C[C@H](N1CCCNCC1)[C@H]2Oc1ccc(S(=O)(=O)N[C@H]2CCN(CCOCCNC(=O)NCCCCNC(=O)NCCOCCN3CC[C@H](NS(=O)(=O)c4ccc(O[C@H]5c6cc(Cl)cc(C#N)c6C[C@@H]5N5CCCNCC5)cc4)C3)C2)cc1 [Example 126, 4-([(1S,2S)-6-Chloro-4-cyano-2-(1,4-diazepan-1-yl)-2,3-dihydro-1H-inden-1-yl]oxy)-N—[(S)-1-(20-[(S)-3-([4-([(1S,2S)-6-chloro-4-cyano-2-(1,4-diazepan-1-yl)-2,3-dihydro-1H-inden-1-yl]oxy)phenyl]sulfonamido)pyrrolidin-1-yl]-7,14-dioxo-3,18-dioxa-6,8,13,15-tetraazaicosyl)pyrrolidin-3-yl]benzenesulfonamide] | < 50% |
